Test results as given in PMC8630787 (ACS Sensors, 2021).

Each compound was assayed against dihydroorotate dehydrogenase (DHODH) (Homo sapiens, UniProt Q02127) (assay: colorimetric DCIP reduction enzyme assay ([…] DHODH, L-DHO, coenzyme Q10)).
dihydroorotate dehydrogenase (DHODH), sequence (Q02127 whole entry): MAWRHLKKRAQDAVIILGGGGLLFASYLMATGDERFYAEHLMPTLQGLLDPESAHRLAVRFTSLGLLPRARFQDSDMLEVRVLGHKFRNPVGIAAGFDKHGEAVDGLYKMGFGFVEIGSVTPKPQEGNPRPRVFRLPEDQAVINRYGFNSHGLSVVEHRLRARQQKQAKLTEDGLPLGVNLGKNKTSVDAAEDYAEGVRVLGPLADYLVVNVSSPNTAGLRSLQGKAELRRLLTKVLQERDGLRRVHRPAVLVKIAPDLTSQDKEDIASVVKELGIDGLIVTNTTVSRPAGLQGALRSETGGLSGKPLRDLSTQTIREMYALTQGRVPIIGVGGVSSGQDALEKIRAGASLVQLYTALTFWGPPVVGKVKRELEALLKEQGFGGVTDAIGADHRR
Type: biochemical
`C/C(O)=C(\C#N)C(=O)Nc1ccc(OC(F)(F)F)cc1` [CF3O-TF] gave an IC50 of 0.33 µM. `C/C(O)=C(\C#N)C(=O)Nc1cc(C(F)(F)F)cc(C(F)(F)F)c1` [di-CF3-TF] showed an IC50 of 1.32 µM. `C/C(O)=C(\C#N)C(=O)Nc1ccc(S(F)(F)(F)(F)F)cc1` [SF5-TF] was tested, and the IC50 was 0.58 µM.
